Assay results from ChEMBL document CHEMBL3045386, “Flavonoids as lead compounds modulating the enzyme targets in Alzheimers disease” (Med Chem Res, 2013).

How the values were obtained:
Cholinesterase = Cholinesterase (Homo sapiens, UniProt P06276); assay: Inhibition of BuChE (unknown origin)
Acetylcholinesterase = Acetylcholinesterase (Homo sapiens, UniProt P22303); assay: Inhibition of AChE (unknown origin)
[1] = Inhibition of NADPH oxidase in Homo sapiens (human) HUVEC cells; format: cell-based
[2] = target: Glycogen synthase kinase-3 beta (Homo sapiens, UniProt P49841); assay: Inhibition of Homo sapiens (human) recombinant GSK3beta after 30 min by Kinase-Glo assay
Beta-secretase 1 = Beta-secretase 1 (Homo sapiens, UniProt P56817); assay: Inhibition of BACE1 (unknown origin)
Chain of Beta-secretase 1 (P56817 whole entry): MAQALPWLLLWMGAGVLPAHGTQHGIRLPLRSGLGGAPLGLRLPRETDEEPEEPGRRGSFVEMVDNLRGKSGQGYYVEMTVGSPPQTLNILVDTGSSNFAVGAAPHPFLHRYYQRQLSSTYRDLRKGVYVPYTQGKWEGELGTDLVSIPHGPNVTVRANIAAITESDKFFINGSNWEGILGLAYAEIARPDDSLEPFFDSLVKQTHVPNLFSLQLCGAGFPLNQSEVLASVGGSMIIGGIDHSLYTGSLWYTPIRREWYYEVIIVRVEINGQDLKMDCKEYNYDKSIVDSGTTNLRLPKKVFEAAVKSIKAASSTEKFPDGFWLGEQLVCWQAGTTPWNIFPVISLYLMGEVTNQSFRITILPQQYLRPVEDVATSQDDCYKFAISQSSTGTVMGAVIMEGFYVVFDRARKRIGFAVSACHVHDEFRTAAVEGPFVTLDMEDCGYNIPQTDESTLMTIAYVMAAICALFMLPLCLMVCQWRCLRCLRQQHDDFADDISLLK

Chain of Cholinesterase (P06276 whole entry): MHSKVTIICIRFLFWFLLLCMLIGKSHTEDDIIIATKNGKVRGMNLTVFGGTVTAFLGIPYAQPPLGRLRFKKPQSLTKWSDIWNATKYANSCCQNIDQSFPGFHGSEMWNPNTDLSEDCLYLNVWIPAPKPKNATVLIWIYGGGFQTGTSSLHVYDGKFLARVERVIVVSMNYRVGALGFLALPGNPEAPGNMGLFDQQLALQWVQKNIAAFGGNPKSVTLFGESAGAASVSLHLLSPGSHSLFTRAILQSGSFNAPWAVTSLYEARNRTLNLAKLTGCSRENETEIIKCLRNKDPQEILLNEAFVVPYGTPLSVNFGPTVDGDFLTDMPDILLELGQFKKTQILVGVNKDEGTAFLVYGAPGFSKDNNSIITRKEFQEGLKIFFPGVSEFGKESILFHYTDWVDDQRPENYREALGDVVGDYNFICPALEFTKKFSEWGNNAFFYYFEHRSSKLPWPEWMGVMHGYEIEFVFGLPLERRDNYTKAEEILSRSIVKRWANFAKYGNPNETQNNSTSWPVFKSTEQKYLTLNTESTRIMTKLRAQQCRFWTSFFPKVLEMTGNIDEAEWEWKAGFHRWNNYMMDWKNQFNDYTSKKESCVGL
Chain of Glycogen synthase kinase-3 beta (P49841 whole entry): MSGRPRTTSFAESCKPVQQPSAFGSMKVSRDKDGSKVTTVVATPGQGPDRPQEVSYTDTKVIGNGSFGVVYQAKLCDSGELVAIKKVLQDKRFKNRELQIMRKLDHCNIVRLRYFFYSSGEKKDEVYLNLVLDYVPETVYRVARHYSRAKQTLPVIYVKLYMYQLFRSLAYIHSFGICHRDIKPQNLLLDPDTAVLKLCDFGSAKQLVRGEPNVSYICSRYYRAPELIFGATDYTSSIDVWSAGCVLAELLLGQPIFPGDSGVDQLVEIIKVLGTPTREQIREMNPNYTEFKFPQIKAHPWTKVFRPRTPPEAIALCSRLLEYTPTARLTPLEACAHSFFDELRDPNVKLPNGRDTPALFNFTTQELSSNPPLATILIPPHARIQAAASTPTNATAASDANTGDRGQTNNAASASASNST
Chain of Acetylcholinesterase (P22303 whole entry): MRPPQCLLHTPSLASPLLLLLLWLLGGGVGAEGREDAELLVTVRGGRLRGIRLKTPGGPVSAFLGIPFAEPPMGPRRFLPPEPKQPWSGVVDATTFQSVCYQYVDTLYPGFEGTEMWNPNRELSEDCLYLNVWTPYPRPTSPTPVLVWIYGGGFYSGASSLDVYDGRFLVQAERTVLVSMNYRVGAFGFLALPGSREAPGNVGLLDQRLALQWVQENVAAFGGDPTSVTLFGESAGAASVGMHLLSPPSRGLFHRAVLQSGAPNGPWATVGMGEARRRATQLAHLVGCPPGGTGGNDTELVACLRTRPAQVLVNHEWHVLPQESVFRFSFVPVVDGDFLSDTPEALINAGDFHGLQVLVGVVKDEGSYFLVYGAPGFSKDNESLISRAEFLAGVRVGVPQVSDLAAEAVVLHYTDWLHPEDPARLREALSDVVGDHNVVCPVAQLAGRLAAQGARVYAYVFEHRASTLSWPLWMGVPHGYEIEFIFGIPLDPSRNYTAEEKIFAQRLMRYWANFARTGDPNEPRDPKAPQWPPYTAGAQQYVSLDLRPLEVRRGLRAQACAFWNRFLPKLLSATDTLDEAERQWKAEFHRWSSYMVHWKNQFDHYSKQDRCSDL

CC(C)=CCC/C(C)=C/Cc1cc(-c2cc(=O)c3c(O)cc(O)cc3o2)c(O)cc1O
IC50 (Cholinesterase): 16.2 µM
IC50 (Acetylcholinesterase): 16.2 µM
Ki (Acetylcholinesterase): 3.1 µM

COc1cc(O)c(-c2cc(=O)c3c(O)cc(O)cc3o2)cc1C/C=C(\C)CCC=C(C)C
IC50 (Cholinesterase): 11 µM
Ki (Cholinesterase): 1.74 µM
IC50 (Acetylcholinesterase): 11 µM
Ki (Acetylcholinesterase): 3.1 µM

COc1cc2occ(-c3ccc(OC4CCN(Cc5ccccc5)CC4)cc3)c(=O)c2cc1OC
IC50 (Acetylcholinesterase): 0.093 µM

COc1cc2occ(-c3ccc(N4CCCC4)cc3)c(=O)c2cc1OC
IC50 (Acetylcholinesterase): 1.63 µM

COc1cc([C@H]2Oc3cc(O)cc(O)c3C[C@H]2O)ccc1O [3'-O-METHYL EPICATECHIN]
IC50 [1]: 7.9 µM

O=C1c2c(O)cc(O)cc2O[C@H](c2ccc(O)c(O)c2)[C@H]1O [(+)-TAXIFOLIN]
IC50 [1]: 12 µM

Oc1cc(O)c2c(c1)O[C@H](c1ccc(O)c(O)c1)[C@H](O)C2 [(-)-EPICATECHIN]
IC50 [1]: > 100 µM

O=c1cc(-c2ccc(O)cc2)oc2cc(O)cc(O)c12 [APIGENIN]
IC50 [2]: 1.9 µM
IC50 (Acetylcholinesterase): 0.012 µM

CC(C)=CC1Oc2cc(O)ccc2-c2oc3c4c(cc(O)c3c(=O)c21)OC(C)(C)C=C4 (configuration not stated) [CYCLOMORUSIN]
IC50 (Cholinesterase): 1.7 µM
Ki (Acetylcholinesterase): 3.1 µM

COc1ccc(-c2cc(=O)c3c(O)cc(O)cc3o2)cc1O [DIOSMETIN]
IC50 [1]: 7.6 µM

Oc1cc(O)c2c(c1)O[C@H](c1cc(O)c(O)c(O)c1)[C@H](O)C2 [EPIGALLOCATECHIN]
IC50 [1]: 8 µM

O=c1c(O)c(-c2ccc(O)c(O)c2)oc2cc(O)ccc12 [FISETIN]
IC50 (Acetylcholinesterase): 0.012 µM

O=c1c(O)c(-c2ccccc2)oc2cc(O)cc(O)c12 [GALANGIN]
IC50 (Acetylcholinesterase): 0.012 µM

COc1ccc([C@@H]2CC(=O)c3c(O)cc(O)cc3O2)cc1O [HESPERETIN]
IC50 [2]: 26.9 µM

COc1ccc([C@@H]2CC(=O)c3c(O)cc(O[C@@H]4O[C@H](CO[C@@H]5O[C@@H](C)[C@H](O)[C@@H](O)[C@H]5O)[C@@H](O)[C@H](O)[C@H]4O)cc3O2)cc1O [HESPERIDIN]
IC50 [2]: 100 µM

OCCc1ccc(O)c(O)c1 [HYDROXYTYROSOL]
IC50 [1]: 7.5 µM

COc1cc(-c2oc3cc(O)cc(O)c3c(=O)c2O)ccc1O [ISORHAMNETIN]
IC50 [1]: 2.8 µM

O=c1c(OC2O[C@H](CO)[C@H](O)[C@H](O)[C@H]2O)c(-c2ccc(O)cc2)oc2cc(O)cc(O)c12 (stereo partly drawn) [KAEMPFEROL 3-O-D-GALACTOSIDE]
IC50 (Acetylcholinesterase): 0.012 µM

O=c1c(O)c(-c2ccc(O)cc2)oc2cc(O)cc(O)c12 [KAEMPFEROL]
IC50 (Beta-secretase 1): 14.7 µM
IC50 [1]: 10 µM

CC(C)=CCc1c(-c2ccc(O)cc2O)oc2c(CC=C(C)C)c(O)cc(O)c2c1=O [KUWANON C]
IC50 (Cholinesterase): 1.7 µM
Ki (Acetylcholinesterase): 3.1 µM

CC(C)=CCC/C(C)=C/Cc1cc(C2CC(=O)c3c(O)cc(O)cc3O2)c(O)cc1O (configuration not stated) [KUWANON E]
IC50 (Cholinesterase): 1.7 µM
Ki (Acetylcholinesterase): 3.1 µM

COc1cc(O)c(C2CC(=O)c3c(O)cc(O)cc3O2)cc1C/C=C(\C)CCC=C(C)C (configuration not stated) [KUWANONU]
IC50 (Cholinesterase): 1.7 µM
Ki (Acetylcholinesterase): 3.1 µM

O=c1cc(-c2ccc(O)c(O)c2)oc2cc(O)cc(O)c12 [LUTEOLIN]
IC50 [2]: 1.5 µM

O=c1c(O)c(-c2ccc(O)cc2O)oc2cc(O)cc(O)c12 [MORIN]
IC50 (Beta-secretase 1): 21.7 µM

CC(C)(O)CCc1c(-c2ccc(O)cc2O)oc2c3c(cc(O)c2c1=O)OC(C)(C)C=C3 [MORUSINOL]
IC50 (Cholinesterase): 1.7 µM
Ki (Acetylcholinesterase): 3.1 µM

CC(C)=CCc1c(-c2ccc(O)cc2O)oc2c3c(cc(O)c2c1=O)OC(C)(C)C=C3 [MORUSIN]
IC50 (Cholinesterase): 1.7 µM
Ki (Acetylcholinesterase): 3.1 µM

O=c1c(O)c(-c2cc(O)c(O)c(O)c2)oc2cc(O)cc(O)c12 [MYRICETIN]
IC50 (Beta-secretase 1): 2.8 µM
IC50 (Acetylcholinesterase): 0.012 µM

O=C1C[C@@H](c2ccc(O)cc2)Oc2cc(O)cc(O)c21 [NARINGENIN]
IC50 [2]: 45.7 µM

C[C@@H]1O[C@@H](O[C@H]2[C@H](Oc3cc(O)c4c(c3)O[C@H](c3ccc(O)cc3)CC4=O)O[C@H](CO)[C@@H](O)[C@@H]2O)[C@H](O)[C@H](O)[C@H]1O [NARINGIN]
IC50 [2]: 100 µM

CC1(C)C=Cc2c(cc(O)c3c(=O)c4c(oc23)-c2ccc(O)cc2OC(C(C)(C)O)C4)O1 (configuration not stated) [NEOCYCLOMORUSIN]
IC50 (Cholinesterase): 1.7 µM
Ki (Acetylcholinesterase): 3.1 µM

Oc1cc(O)c2c(c1)O[C@H](c1ccc(O)c(O)c1)[C@H](O)[C@H]2c1c(O)cc(O)c2c1O[C@H](c1ccc(O)c(O)c1)[C@H](O)C2 [PROCYANIDIN B2]
IC50 [1]: 3.8 µM

O=c1c(O)c(-c2ccc(O)c(O)c2)oc2cc(O)cc(O)c12 [QUERCETIN]
IC50 [2]: 2 µM
IC50 (Cholinesterase): 421 µM
IC50 [1]: > 100 µM
IC50 (Acetylcholinesterase): 354 µM

C[C@@H]1O[C@@H](OC[C@H]2O[C@@H](Oc3c(-c4ccc(O)c(O)c4)oc4cc(O)cc(O)c4c3=O)[C@H](O)[C@@H](O)[C@@H]2O)[C@H](O)[C@H](O)[C@H]1O [RUTIN]
IC50 (Acetylcholinesterase): 0.012 µM

OCCc1ccc(O)cc1 [TYROSOL]
IC50 [1]: 7.5 µM
